3 compounds from ChEMBL document CHEMBL5696442, “Discovery of type II inhibitors of TGFβ-activated kinase 1 (TAK1) and mitogen-activated protein kinase kinase kinase kinase 2 (MAP4K2)” (J Med Chem, 2015) can be followed below.

The target of test [1] is Serine/threonine-protein kinase WNK4 (Homo sapiens) (UniProt Q96J92). The test is described as follows: Inhibition of Wnk4 ACT labeling site in human Huh-7 cells at 1 uM by KiNativ Profiling analysis relative to control. In kind it is cell-based.
Serine/threonine-protein kinase WNK4 (Homo sapiens), sequence (Q96J92 whole entry): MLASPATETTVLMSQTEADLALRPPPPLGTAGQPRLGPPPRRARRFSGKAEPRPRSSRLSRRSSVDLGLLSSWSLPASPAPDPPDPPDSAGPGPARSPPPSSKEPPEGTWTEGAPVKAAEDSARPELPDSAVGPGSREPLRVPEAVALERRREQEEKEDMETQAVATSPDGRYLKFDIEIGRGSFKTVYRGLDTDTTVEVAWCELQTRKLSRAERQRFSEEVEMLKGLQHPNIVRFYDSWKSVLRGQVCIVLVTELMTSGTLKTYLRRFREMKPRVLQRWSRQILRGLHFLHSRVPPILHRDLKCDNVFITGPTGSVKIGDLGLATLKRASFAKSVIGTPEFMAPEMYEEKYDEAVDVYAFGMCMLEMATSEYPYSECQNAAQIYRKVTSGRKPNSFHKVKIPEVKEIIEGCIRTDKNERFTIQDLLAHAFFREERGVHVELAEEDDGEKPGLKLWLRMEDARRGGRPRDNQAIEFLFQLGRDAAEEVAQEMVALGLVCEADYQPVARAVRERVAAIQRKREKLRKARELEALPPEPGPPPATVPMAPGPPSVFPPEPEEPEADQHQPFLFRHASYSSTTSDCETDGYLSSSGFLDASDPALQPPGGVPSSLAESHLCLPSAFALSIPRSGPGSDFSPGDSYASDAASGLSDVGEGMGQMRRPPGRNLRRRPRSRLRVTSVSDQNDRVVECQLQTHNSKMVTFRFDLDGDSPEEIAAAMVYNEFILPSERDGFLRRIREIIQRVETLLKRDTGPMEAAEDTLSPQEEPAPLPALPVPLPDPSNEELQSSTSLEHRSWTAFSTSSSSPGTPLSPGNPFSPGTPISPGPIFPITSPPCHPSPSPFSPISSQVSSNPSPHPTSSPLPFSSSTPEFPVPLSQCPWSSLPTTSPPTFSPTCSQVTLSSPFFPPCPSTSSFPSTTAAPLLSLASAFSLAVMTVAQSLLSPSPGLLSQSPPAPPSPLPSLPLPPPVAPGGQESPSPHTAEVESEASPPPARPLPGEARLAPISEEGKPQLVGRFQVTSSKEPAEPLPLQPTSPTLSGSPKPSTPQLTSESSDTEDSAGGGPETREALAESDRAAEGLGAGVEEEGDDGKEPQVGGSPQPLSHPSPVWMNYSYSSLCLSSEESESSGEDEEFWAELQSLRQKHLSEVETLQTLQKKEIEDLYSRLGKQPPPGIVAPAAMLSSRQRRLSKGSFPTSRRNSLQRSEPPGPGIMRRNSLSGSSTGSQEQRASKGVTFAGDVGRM
The target in test [2] is T1, Scaffold protein ILK (Homo sapiens) (UniProt Q13418).
T1 sequence (whole entry): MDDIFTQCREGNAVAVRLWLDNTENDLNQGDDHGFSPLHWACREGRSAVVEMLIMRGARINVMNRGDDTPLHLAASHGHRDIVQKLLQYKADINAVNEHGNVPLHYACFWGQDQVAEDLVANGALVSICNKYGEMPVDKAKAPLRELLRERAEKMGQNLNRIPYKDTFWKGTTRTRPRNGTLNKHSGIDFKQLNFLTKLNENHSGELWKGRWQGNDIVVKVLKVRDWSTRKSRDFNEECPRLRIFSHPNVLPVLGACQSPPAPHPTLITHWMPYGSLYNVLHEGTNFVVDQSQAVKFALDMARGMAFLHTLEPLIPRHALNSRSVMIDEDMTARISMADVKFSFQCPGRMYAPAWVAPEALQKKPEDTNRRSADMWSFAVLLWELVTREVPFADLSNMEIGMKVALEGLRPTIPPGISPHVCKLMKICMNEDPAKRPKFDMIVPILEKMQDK
Put plainly: Inhibition of ILK Lys1 labeling site in human Huh-7 cell lysate at 1 uM by KiNativ Profiling analysis relative to control. Format: subcellular.

Test [3] addresses Serine/threonine-protein kinase WNK2 (Homo sapiens) (UniProt Q9Y3S1). Put plainly: Inhibition of Wnk2 ACT labeling site in human Huh-7 cells at 1 uM by KiNativ Profiling analysis relative to control. In kind it is cell-based.
Test [4] concerns the target T2, Serine/threonine-protein kinase Nek9 (Homo sapiens) (UniProt Q8TD19).
T2 sequence (whole entry): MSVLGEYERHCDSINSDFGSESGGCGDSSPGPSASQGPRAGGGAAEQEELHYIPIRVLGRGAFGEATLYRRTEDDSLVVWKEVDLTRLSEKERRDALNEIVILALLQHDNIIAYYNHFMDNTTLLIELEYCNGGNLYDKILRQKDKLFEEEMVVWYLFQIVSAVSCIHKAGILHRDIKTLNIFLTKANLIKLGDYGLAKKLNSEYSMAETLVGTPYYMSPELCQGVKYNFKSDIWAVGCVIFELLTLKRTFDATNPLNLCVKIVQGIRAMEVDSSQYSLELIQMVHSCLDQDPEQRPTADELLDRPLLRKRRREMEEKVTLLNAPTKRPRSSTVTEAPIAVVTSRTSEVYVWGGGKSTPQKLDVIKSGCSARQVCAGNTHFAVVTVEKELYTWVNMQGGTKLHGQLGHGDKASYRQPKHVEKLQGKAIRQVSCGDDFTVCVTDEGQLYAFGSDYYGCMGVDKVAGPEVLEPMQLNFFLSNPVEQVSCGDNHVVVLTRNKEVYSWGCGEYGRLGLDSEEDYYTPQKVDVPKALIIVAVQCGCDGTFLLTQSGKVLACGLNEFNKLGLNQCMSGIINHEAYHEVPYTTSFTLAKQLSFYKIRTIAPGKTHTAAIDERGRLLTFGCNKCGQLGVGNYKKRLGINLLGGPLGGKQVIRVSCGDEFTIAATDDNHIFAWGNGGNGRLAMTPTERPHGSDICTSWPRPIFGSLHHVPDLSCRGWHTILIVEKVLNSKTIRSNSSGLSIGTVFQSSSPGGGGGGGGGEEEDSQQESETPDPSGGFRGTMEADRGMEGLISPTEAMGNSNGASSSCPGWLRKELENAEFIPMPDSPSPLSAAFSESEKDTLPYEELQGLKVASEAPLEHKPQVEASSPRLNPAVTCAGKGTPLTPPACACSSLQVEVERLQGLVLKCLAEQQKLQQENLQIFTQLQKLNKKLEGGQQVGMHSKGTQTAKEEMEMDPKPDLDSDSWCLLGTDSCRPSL
Put plainly: Inhibition of NEK9 Lys2 labeling site in human A-375 cells at 0.5 uM by KiNativ Profiling analysis relative to control. Format: cell-based.

Test [5] deals with Tyrosine-protein kinase JAK1 (Homo sapiens) (UniProt P23458). The test is described as follows: Inhibition of JAK1 JH1catalytic domain (unknown origin) at 1 uM by Ambit Kinomescan binding assay relative to control.
Test [6] has as its target Mitogen-activated protein kinase kinase kinase kinase 4 (Homo sapiens, UniProt O95819). The test is described as follows: Inhibition of ZC1 Lys2 labeling site in human A-375 cells at 5 uM by KiNativ Profiling analysis relative to control. Format: cell-based.
Test [7] deals with MEF. Put plainly: Inhibition of IL-1alpha induced JNK1/2 phosphorylation level in mouse MEF cells preincubated for 1 hr followed by IL-1 alpha stimulation and measured after 30 mins by Western blot analysis. In kind it is functional, cell-based. Particulars: dose 0.01-10 µM. A general note: In western blotting, separated proteins are transferred to a membrane and probed.
Test [8] addresses T3, Mitogen-activated protein kinase 13 (Homo sapiens) (UniProt O15264).
T3 sequence (whole entry): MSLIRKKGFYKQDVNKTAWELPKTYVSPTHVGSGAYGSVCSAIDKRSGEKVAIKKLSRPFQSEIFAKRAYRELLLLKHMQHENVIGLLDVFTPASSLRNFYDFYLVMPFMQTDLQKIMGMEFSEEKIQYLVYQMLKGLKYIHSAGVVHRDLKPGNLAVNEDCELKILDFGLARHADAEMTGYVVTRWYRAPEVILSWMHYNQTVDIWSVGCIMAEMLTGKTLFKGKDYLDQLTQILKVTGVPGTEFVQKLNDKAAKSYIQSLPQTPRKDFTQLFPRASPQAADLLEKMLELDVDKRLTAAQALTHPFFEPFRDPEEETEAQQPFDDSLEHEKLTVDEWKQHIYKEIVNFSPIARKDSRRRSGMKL
The test is described as follows: Inhibition of p38delta (unknown origin) at 10 uM by Ambit Kinomescan binding assay relative to control; values are per cent of control.

Mitogen-activated protein kinase kinase kinase kinase 4, sequence (O95819 2-1239 limits assumed): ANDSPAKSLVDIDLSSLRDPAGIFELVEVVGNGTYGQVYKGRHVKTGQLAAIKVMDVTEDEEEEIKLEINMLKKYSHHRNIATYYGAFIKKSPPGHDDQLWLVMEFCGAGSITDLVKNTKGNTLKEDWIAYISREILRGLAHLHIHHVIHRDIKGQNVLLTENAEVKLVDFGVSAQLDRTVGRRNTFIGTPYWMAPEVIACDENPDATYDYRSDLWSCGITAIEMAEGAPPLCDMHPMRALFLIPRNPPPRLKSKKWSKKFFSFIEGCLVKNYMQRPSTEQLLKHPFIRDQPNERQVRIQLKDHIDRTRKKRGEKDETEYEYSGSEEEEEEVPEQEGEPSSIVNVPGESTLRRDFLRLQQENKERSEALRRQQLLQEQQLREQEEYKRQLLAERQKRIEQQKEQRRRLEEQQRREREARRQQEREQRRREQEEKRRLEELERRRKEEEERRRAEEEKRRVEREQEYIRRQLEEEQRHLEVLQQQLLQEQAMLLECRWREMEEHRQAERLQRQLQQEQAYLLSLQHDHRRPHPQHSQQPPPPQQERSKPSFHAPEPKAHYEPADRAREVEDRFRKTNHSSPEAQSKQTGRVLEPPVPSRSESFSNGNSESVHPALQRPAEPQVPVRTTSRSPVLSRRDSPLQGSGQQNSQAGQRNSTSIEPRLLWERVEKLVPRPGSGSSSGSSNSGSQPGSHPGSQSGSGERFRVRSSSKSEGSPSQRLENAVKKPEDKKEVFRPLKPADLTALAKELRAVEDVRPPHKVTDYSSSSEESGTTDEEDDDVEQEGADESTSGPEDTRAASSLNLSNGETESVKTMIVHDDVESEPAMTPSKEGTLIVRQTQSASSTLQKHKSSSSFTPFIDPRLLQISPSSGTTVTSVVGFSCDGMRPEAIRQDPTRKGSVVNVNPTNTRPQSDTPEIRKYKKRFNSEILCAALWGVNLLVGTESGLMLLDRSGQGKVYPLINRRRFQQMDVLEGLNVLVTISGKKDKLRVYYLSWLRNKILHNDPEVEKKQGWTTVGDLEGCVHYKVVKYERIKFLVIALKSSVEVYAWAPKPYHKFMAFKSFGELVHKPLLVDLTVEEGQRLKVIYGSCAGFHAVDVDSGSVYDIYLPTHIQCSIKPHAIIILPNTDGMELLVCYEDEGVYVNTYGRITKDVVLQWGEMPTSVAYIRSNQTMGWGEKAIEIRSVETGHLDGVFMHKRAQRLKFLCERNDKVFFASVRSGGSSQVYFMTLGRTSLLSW
Serine/threonine-protein kinase WNK2 (Homo sapiens), sequence (Q9Y3S1 whole entry): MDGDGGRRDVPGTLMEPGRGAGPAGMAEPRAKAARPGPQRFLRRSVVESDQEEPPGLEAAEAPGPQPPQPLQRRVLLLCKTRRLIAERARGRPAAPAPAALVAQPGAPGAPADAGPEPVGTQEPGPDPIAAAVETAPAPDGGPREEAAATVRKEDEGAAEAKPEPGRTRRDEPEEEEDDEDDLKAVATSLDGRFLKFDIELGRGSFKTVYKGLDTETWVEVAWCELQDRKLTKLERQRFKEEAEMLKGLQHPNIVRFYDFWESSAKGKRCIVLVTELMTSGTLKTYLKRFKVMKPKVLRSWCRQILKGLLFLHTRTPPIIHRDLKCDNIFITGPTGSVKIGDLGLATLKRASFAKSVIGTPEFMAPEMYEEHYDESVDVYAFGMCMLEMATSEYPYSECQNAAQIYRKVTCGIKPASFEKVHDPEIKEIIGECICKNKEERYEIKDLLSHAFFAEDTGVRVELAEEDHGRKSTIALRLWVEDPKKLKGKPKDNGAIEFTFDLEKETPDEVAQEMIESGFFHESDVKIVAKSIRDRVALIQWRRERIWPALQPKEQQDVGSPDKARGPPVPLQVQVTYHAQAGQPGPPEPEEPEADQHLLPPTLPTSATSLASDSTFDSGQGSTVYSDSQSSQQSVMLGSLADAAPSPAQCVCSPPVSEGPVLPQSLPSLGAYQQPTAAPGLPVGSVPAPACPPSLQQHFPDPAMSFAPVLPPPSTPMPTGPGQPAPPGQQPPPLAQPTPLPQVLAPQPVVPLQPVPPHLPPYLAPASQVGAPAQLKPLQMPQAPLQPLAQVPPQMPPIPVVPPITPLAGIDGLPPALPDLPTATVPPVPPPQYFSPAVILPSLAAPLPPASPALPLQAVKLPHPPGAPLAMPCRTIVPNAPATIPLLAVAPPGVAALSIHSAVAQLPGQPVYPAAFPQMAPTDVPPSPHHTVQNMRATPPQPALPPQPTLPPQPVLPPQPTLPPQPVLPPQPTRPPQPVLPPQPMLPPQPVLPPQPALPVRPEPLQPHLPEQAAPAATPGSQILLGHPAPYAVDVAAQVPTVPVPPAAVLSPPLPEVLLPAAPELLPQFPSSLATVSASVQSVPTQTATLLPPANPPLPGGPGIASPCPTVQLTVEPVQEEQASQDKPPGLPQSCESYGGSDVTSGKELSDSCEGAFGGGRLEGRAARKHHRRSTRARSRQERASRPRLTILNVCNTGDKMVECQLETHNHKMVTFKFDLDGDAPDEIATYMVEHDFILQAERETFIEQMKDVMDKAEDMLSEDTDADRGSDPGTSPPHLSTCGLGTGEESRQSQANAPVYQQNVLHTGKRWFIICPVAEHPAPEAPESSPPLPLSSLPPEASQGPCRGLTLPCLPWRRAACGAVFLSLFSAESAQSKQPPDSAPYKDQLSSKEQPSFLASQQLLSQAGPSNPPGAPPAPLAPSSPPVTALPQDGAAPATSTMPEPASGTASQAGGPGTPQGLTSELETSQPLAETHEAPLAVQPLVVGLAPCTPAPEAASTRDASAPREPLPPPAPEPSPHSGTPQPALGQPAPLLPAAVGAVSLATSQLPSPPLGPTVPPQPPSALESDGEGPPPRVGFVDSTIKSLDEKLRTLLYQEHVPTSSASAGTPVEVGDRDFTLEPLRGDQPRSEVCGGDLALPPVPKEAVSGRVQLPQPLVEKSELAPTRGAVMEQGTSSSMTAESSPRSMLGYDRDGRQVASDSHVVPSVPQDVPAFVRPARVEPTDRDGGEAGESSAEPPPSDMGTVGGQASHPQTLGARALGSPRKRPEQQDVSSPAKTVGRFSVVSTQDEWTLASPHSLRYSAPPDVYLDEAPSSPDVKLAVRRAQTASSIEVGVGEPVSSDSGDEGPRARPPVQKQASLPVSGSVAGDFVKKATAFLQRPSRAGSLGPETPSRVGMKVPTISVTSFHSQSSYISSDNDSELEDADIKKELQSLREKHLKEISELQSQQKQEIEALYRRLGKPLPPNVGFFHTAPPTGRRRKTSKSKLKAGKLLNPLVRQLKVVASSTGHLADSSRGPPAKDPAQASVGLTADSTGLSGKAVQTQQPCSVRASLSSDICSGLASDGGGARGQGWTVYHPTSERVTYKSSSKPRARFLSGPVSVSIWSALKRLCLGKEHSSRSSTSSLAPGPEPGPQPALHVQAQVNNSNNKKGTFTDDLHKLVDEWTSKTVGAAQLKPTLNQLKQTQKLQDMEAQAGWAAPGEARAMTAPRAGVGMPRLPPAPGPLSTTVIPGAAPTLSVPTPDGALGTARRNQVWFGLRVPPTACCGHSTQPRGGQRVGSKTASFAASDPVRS

The term inhibition denotes the relative decrease from the control value, in per cent. As for `CNc1cc(Oc2cc(C(=O)Nc3cc(N4CCN(C)CC4)cc(C(F)(F)F)c3)ccc2C)ncn1`, the values for the inhibition in test [1], in test [2] and in test [3] were 21.6%, -6.9% and 21.6%, respectively.
Turning to `CCN1CCN(Cc2ccc(NC(=O)c3ccc(C)c(/C=C/c4cnc5[nH]ccc5c4OC)c3)cc2C(F)(F)F)CC1`, the inhibition was found to be 10.4% in test [4] and 76% in test [5].
For the compound `CCN1CCN(Cc2ccc(NC(=O)c3ccc(C)c(Oc4ccnc5[nH]ccc45)c3)cc2C(F)(F)F)CC1`, the values for the inhibition in test [6] and in test [7] were 92.7% and “Dose-Dependent Effect”, respectively. Further, the percent of control in test [8] was determined as 0.55%.
